Experimental data as given in ChEMBL document CHEMBL1201862, “PubChem BioAssay data set” (2004).
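Cultured in 96-well plates, cells were exposed to test compound for 48 hours across five concentrations. The concentration for 50% growth inhibition is given as GI50.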 Active and inactive are the calls of the source. Rule as the data show it: active = GI50 up to about 1.1 µM and inactive = higher.

What was measured:
Assay in all cases: DTP human tumour cell line panel, 48 h
OVCAR-4 = tested on: OVCAR-4
DMS-273 = tested on: DMS-273
HCT-116 = tested on: HCT-116
M19-MEL = tested on: M19-MEL
SK-MEL-5 = tested on: SK-MEL-5
SR = tested on: SR
ACHN = tested on: ACHN
A549 = tested on: A549
NCI-H226 = tested on: NCI-H226
HCC 2998 = tested on: HCC 2998
Malme-3M = tested on: Malme-3M
LXFL 529 = tested on: LXFL 529
KM12 = tested on: KM12
UACC-257 = tested on: UACC-257
TK-10 = tested on: TK-10
NCI-H23 = tested on: NCI-H23
K562 = tested on: K562
SF-539 = tested on: SF-539
HCT-15 = tested on: HCT-15
COLO 205 = tested on: COLO 205
OVCAR-5 = tested on: OVCAR-5
RXF 393 = tested on: RXF 393
HOP-18 = tested on: HOP-18
DMS-114 = tested on: DMS-114
XF498 = tested on: XF498
SF-268 = tested on: SF-268
SF-295 = tested on: SF-295
HOP-62 = tested on: HOP-62
RXF 631 = tested on: RXF 631
CAKI-1 = tested on: CAKI-1
HT-29 = tested on: HT-29
MOLT-4 = tested on: MOLT-4
DLD-1 = tested on: DLD-1
M14 = tested on: M14
EKVX = tested on: EKVX
CCRF-CEM = tested on: CCRF-CEM
NCI-H460 = tested on: NCI-H460
KM-20L2 = tested on: KM-20L2
SN12C = tested on: SN12C
IGROV-1 = tested on: IGROV-1
SNB-19 = tested on: SNB-19
A498 = tested on: A498
UO-31 = tested on: UO-31
SNB-75 = tested on: SNB-75
LOX IMVI = tested on: LOX IMVI
OVCAR-3 = tested on: OVCAR-3
786-0 = tested on: 786-0
UACC-62 = tested on: UACC-62
SK-MEL-28 = tested on: SK-MEL-28
SK-OV-3 = tested on: SK-OV-3
HL-60 = tested on: HL-60
SW-620 = tested on: SW-620
OVCAR-8 = tested on: OVCAR-8
NCI-H522 = tested on: NCI-H522
SK-MEL-2 = tested on: SK-MEL-2
U-251 = tested on: U-251
RPMI-8226 = tested on: RPMI-8226

O=C(Nc1ccc(Cl)cc1)c1cc([N+](=O)[O-])ccc1O
GI50 (OVCAR-4): 4.52 µM (inactive) | GI50 (DMS-273): 5.55 µM (inactive) | GI50 (HCT-116): 3.37 µM (inactive) | GI50 (M19-MEL): 3.52 µM (inactive) | GI50 (SK-MEL-5): 2.8 µM (inactive) | GI50 (SR): 5.57 µM (inactive) | GI50 (ACHN): 3.2 µM (inactive) | GI50 (A549): 4.62 µM (inactive) | GI50 (NCI-H226): 3.55 µM (inactive) | GI50 (HCC 2998): 2.32 µM (inactive) | GI50 (Malme-3M): 2.13 µM (inactive) | GI50 (LXFL 529): 2.9 µM (inactive) | GI50 (KM12): 4.68 µM (inactive) | GI50 (UACC-257): 4.84 µM (inactive) | GI50 (TK-10): 5.58 µM (inactive) | GI50 (NCI-H23): 2.64 µM (inactive) | GI50 (K562): 2.67 µM (inactive) | GI50 (SF-539): 3.34 µM (inactive) | GI50 (HCT-15): 6.79 µM | GI50 (COLO 205): 3.27 µM (inactive) | GI50 (OVCAR-5): 4.53 µM (inactive) | GI50 (RXF 393): 1.77 µM (inactive) | GI50 (HOP-18): 1.58 µM (inactive) | GI50 (DMS-114): 2.35 µM (inactive) | GI50 (XF498): 2.82 µM (inactive) | GI50 (SF-268): 4.97 µM (inactive) | GI50 (SF-295): 4.95 µM (inactive) | GI50 (HOP-62): 2.49 µM (inactive) | GI50 (RXF 631): 2.9 µM (inactive) | GI50 (CAKI-1): 4.02 µM (inactive) | GI50 (HT-29): 3.62 µM (inactive) | GI50 (MOLT-4): 2.58 µM (inactive) | GI50 (DLD-1): 3.71 µM (inactive) | GI50 (M14): 3.65 µM (inactive) | GI50 (EKVX): 3.85 µM (inactive) | GI50 (CCRF-CEM): 2.64 µM (inactive) | GI50 (NCI-H460): 3.01 µM (inactive) | GI50 (KM-20L2): 4.49 µM (inactive) | GI50 (SN12C): 4.07 µM (inactive) | GI50 (IGROV-1): 3.27 µM (inactive) | GI50 (SNB-19): 3.77 µM (inactive) | GI50 (A498): 2.47 µM (inactive) | GI50 (UO-31): 2.6 µM (inactive) | GI50 (SNB-75): 3.84 µM (inactive) | GI50 (LOX IMVI): 3.29 µM (inactive) | GI50 (OVCAR-3): 2.67 µM (inactive) | GI50 (786-0): 3.76 µM (inactive) | GI50 (UACC-62): 2.29 µM (inactive) | GI50 (SK-MEL-28): 3.33 µM (inactive) | GI50 (SK-OV-3): 4.69 µM (inactive) | GI50 (HL-60): 2.19 µM (inactive) | GI50 (SW-620): 5.07 µM (inactive) | GI50 (OVCAR-8): 4.33 µM (inactive) | GI50 (NCI-H522): 2.09 µM (inactive) | GI50 (SK-MEL-2): 2.61 µM (inactive) | GI50 (U-251): 3.27 µM (inactive) | GI50 (RPMI-8226): 2.33 µM (inactive)
